Reference: patent US9163256B2, “Mutant receptors and their use in a nuclear receptor-based inducible gene expression system” (priority 2004, dated 2015)
pEC50: −log10 of the molar value.

Legend:
Assay in all cases: GAL4-driven luciferase reporter assay in NIH3T3 cells
Type in all cases: cell-based
CfEcR-DEF mutant F48K = CfEcR-DEF mutant F48K (Choristoneura fumiferana, UniProt O77255, F331K); settings: for Emax: NIH3T3, 40 h, read-out: Rel Max FI
Method: (§1) This construct was prepared in the same way as in switch 1.1 above except wild-type CfEcR-DEF was replaced with mutant CfEcR-DEF comprising a ligand binding domain comprising a substitution mutation selected from Table 1 below.
(§2) DNAs were transfected into mouse NIH3T3 cells (ATCC) as follows. Standard methods for culture and maintenance of the cells were followed. Cells were harvested and plated 96-well plates at 2,500 cells per well, in 50 μL of growth medium containing 10% fetal bovine serum (FBS). Twenty-four hours later, the cells were treated with 35 μL of serum-free growth medium containing either dimethylsulfoxide (DMSO; control) or a DMSO solution of ligand. The cells were then transfected using Superfect (Qiagen Inc.) transfection reagent. For each well, 0.625 μL of Superfect was mixed with 14.2 μL of serum-free growth medium. 0.16 μg of reporter construct and 0.04 μg of each receptor construct were added to the transfection reagent mix. The contents of the transfection mix were mixed in a vortex mixer and let stand at room temperature for 30 minutes. At the end of incubation, 15 μL of transfection mix was added to the cells. The cells were maintained at 37° C. and 5% CO2 for 48 hours in 5% FBS.
(§3) Reporter Assays: Cells were harvested 40 hours after adding ligands. 125 μL of passive lysis buffer (part of Dual-Luciferase reporter assay system from Promega Corporation) were added to each well of the […] plate. The plates were placed on a rotary shaker for 15 minutes. Twenty μL of lysate were assayed. Luciferase activity was measured using Dual-Luciferase reporter assay system from Promega Corporation following the manufacturer's instructions. Fold induction (FI) activities were calculated by dividing relative light units (“RLU”) in ligand treated cells with RLU in DMSO treated cells (untreated control).

CfEcR-DEF mutant F48R = CfEcR-DEF mutant F48R (Choristoneura fumiferana, UniProt O77255, F331R); settings: for Emax: NIH3T3, 40 h, read-out: Rel Max FI
Method: as §1, §2, §3

CfEcR-DEF mutant I51M = CfEcR-DEF mutant I51M (Choristoneura fumiferana, UniProt O77255, I334M); settings: for Emax: NIH3T3, 40 h, read-out: Rel Max FI
Chain of CfEcR-DEF mutant I51M (P28702 299-449): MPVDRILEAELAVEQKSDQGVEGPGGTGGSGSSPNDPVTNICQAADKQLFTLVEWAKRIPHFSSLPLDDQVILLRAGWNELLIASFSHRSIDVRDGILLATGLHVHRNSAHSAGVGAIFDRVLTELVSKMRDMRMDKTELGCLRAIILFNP
Chain of CfEcR-DEF mutant I51M (O77255 entry or part of it I334M): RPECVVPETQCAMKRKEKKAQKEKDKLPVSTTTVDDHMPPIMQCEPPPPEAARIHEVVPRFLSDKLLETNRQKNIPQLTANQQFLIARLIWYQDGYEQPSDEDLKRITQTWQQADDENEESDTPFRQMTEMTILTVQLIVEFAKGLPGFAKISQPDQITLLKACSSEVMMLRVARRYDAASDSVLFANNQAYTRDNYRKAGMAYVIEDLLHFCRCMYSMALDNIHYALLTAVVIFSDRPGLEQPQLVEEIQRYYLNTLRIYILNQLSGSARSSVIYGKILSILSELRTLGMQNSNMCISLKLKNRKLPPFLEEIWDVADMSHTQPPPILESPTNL
Method: as §1, §2, §3

CfEcR-DEF mutant L132E = CfEcR-DEF mutant L132E (Choristoneura fumiferana, UniProt O77255, L415E); settings: for Emax: NIH3T3, 40 h, read-out: Rel Max FI
Method: as §1, §2, §3

CfEcR-DEF mutant L223K = CfEcR-DEF mutant L223K (Choristoneura fumiferana, UniProt O77255, L506K); settings: for Emax: NIH3T3, 40 h, read-out: Rel Max FI
Method: as §1, §2, §3

CfEcR-DEF mutant L223R = CfEcR-DEF mutant L223R (Choristoneura fumiferana, UniProt O77255, L506R); settings: for Emax: NIH3T3, 40 h, read-out: Rel Max FI
Chain of CfEcR-DEF mutant L223R (O77255 entry or part of it L506R): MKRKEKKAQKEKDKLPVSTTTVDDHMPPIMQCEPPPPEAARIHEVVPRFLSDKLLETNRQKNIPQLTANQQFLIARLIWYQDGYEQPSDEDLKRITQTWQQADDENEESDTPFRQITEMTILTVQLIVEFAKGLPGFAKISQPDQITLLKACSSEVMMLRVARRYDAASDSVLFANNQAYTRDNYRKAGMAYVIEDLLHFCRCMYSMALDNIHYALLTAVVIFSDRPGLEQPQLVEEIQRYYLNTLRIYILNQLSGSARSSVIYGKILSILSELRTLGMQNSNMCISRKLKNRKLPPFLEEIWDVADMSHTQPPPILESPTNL
Chain of CfEcR-DEF mutant L223R (P28702 299-449, further chain): as the sequence (P28702 299-449) above
Method: as §1, §2, §3

CfEcR-DEF mutant L223Y = CfEcR-DEF mutant L223Y (Choristoneura fumiferana, UniProt O77255, L506Y); settings: for Emax: NIH3T3, 40 h, read-out: Rel Max FI
Method: as §1, §2, §3

CfEcR-DEF mutant L234R = CfEcR-DEF mutant L234R (Choristoneura fumiferana, UniProt O77255, L517R); settings: for Emax: NIH3T3, 40 h, read-out: Rel Max FI
Method: as §1, §2, §3

CfEcR-DEF mutant L234W = CfEcR-DEF mutant L234W (Choristoneura fumiferana, UniProt O77255, L517W); settings: for Emax: NIH3T3, 40 h, read-out: Rel Max FI
Method: as §1, §2, §3

CfEcR-DEF mutant M125G = CfEcR-DEF mutant M125G (Choristoneura fumiferana, UniProt O77255, M408G)
Method: as §1, §2, §3

CfEcR-DEF mutant M125I = CfEcR-DEF mutant M125I (Choristoneura fumiferana, UniProt O77255, M408I); settings: for Emax: NIH3T3, 40 h, read-out: Rel Max FI
Method: as §1, §2, §3

CfEcR-DEF mutant M125N = CfEcR-DEF mutant M125N (Choristoneura fumiferana, UniProt O77255, M408N)
Method: as §1, §2, §3

CfEcR-DEF mutant M125S = CfEcR-DEF mutant M125S (Choristoneura fumiferana, UniProt O77255, M408S)
Method: as §1, §2, §3

CfEcR-DEF mutant M125V = CfEcR-DEF mutant M125V (Choristoneura fumiferana, UniProt O77255, M408V); settings: for Emax: NIH3T3, 40 h, read-out: Rel Max FI
Method: as §1, §2, §3

CfEcR-DEF mutant M219A = CfEcR-DEF mutant M219A (Choristoneura fumiferana, UniProt O77255, M502A); settings: for Emax: NIH3T3, 40 h, read-out: Rel Max FI
Method: as §1, §2, §3

CfEcR-DEF mutant M219K = CfEcR-DEF mutant M219K (Choristoneura fumiferana, UniProt O77255, M502K); settings: for Emax: NIH3T3, 40 h, read-out: Rel Max FI
Chain of CfEcR-DEF mutant M219K (P28702 299-449): as above
Chain of CfEcR-DEF mutant M219K (O77255 entry or part of it M502K): as the sequence (O77255 entry or part of it I334M) above, with M128I, M296K counted along it
Method: as §1, §2, §3

CfEcR-DEF mutant M219W = CfEcR-DEF mutant M219W (Choristoneura fumiferana, UniProt O77255, M502W); settings: for Emax: NIH3T3, 40 h, read-out: Rel Max FI
Chain of CfEcR-DEF mutant M219W (P28702 299-449): as the sequence (P28702 299-449) above
Chain of CfEcR-DEF mutant M219W (O77255 entry or part of it M502W): as the sequence (O77255 entry or part of it I334M) above, with M128I, M296W counted along it
Method: as §1, §2, §3

CfEcR-DEF mutant M219Y = CfEcR-DEF mutant M219Y (Choristoneura fumiferana, UniProt O77255, M502Y); settings: for Emax: NIH3T3, 40 h, read-out: Rel Max FI
Chain of CfEcR-DEF mutant M219Y (P28702 299-449): as the sequence (P28702 299-449) above
Chain of CfEcR-DEF mutant M219Y (O77255 entry or part of it M502Y): as the sequence (O77255 entry or part of it I334M) above, with M128I, M296Y counted along it
Method: as §1, §2, §3

CfEcR-DEF mutant T52G = CfEcR-DEF mutant T52G (Choristoneura fumiferana, UniProt O77255, T335G); settings: for Emax: NIH3T3, 40 h, read-out: Rel Max FI
Method: as §1, §2, §3

CfEcR-DEF mutant T52M = CfEcR-DEF mutant T52M (Choristoneura fumiferana, UniProt O77255, T335M); settings: for Emax: NIH3T3, 40 h, read-out: Rel MaxFI
Method: as §1, §2, §3

CfEcR-DEF mutant T52Q = CfEcR-DEF mutant T52Q (Choristoneura fumiferana, UniProt O77255, T335Q); settings: for Emax: NIH3T3, 40 h, read-out: Rel Max FI
Chain of CfEcR-DEF mutant T52Q (P28702 299-449): as the sequence (P28702 299-449) above
Chain of CfEcR-DEF mutant T52Q (O77255 entry or part of it T335Q): as the sequence (O77255 entry or part of it L506R) above, with T117Q, R288L counted along it
Method: as §1, §2, §3

CfEcR-DEF mutant T52R = CfEcR-DEF mutant T52R (Choristoneura fumiferana, UniProt O77255, T335R); settings: for Emax: NIH3T3, 40 h, read-out: Rel Max FI
Method: as §1, §2, §3

CfEcR-DEF mutant T52W = CfEcR-DEF mutant T52W (Choristoneura fumiferana, UniProt O77255, T335W)
Chain of CfEcR-DEF mutant T52W (O77255 entry or part of it T335W): as the sequence (O77255 entry or part of it L506R) above, with T117W, R288L counted along it
Chain of CfEcR-DEF mutant T52W (P28702 299-449, further chain): as the sequence (P28702 299-449) above
Method: as §1, §2, §3

CfEcR-DEF mutant W238L = CfEcR-DEF mutant W238L (Choristoneura fumiferana, UniProt O77255, W521L); settings: for Emax: NIH3T3, 40 h, read-out: Rel Max FI
Chain of CfEcR-DEF mutant W238L (P28702 299-449): as above
Chain of CfEcR-DEF mutant W238L (O77255 entry or part of it W521L): as the sequence (O77255 entry or part of it I334M) above, with M128I, W315L counted along it
Method: as §1, §2, §3

CfEcR-DEF mutant W238M = CfEcR-DEF mutant W238M (Choristoneura fumiferana, UniProt O77255, W521M); settings: for Emax: NIH3T3, 40 h, read-out: Rel MaxFI
Chain of CfEcR-DEF mutant W238M (P28702 299-449): as the sequence (P28702 299-449) above
Chain of CfEcR-DEF mutant W238M (O77255 entry or part of it W521M): as the sequence (O77255 entry or part of it I334M) above, with M128I, W315M counted along it
Method: as §1, §2, §3

CCc1c(C(=O)NN(C(=O)c2cc(OC)c(C)c(OC)c2)C(C=C(C)C(C)(C)C)C(C)(C)C)ccc2c1OCCO2 (centres unmarked) [RG-115898, 3,5-dimethoxy-4-methyl-benzoic acid N-(1-tert-butyl-3,4,4-trimethyl-pent-2-enyl)-N′-(5-ethyl-2,3-dihydro-benzo[1,4]dioxine-6-carbonyl)-hydrazide]
pEC50 (CfEcR-DEF mutant F48K): < 4.48
Emax (CfEcR-DEF mutant F48K): 8%
pEC50 (CfEcR-DEF mutant F48R): < 4.48
Emax (CfEcR-DEF mutant F48R): 0%
pEC50 (CfEcR-DEF mutant I51M): < 4.48
Emax (CfEcR-DEF mutant I51M): 2%
pEC50 (CfEcR-DEF mutant L132E): 5.67
Emax (CfEcR-DEF mutant L132E): 34%
Emax (CfEcR-DEF mutant L223K): 18%
pEC50 (CfEcR-DEF mutant L223R): < 4.48
Emax (CfEcR-DEF mutant L223R): 1%
pEC50 (CfEcR-DEF mutant L223Y): 6.48
Emax (CfEcR-DEF mutant L223Y): 20%
pEC50 (CfEcR-DEF mutant L234R): < 4.48
Emax (CfEcR-DEF mutant L234R): 58%
pEC50 (CfEcR-DEF mutant L234W): < 4.48
Emax (CfEcR-DEF mutant L234W): 2%
pEC50 (CfEcR-DEF mutant M125G): 7.10
pEC50 (CfEcR-DEF mutant M125I): < 4.48
Emax (CfEcR-DEF mutant M125I): 0%
pEC50 (CfEcR-DEF mutant M125N): 6.03
pEC50 (CfEcR-DEF mutant M125S): 6.48
pEC50 (CfEcR-DEF mutant M125V): < 4.48
Emax (CfEcR-DEF mutant M125V): 1%
pEC50 (CfEcR-DEF mutant M219A): 6.00
Emax (CfEcR-DEF mutant M219A): 5%
pEC50 (CfEcR-DEF mutant M219K): < 4.48
Emax (CfEcR-DEF mutant M219K): 0%
pEC50 (CfEcR-DEF mutant M219W): < 4.48
Emax (CfEcR-DEF mutant M219W): 0%
pEC50 (CfEcR-DEF mutant M219Y): < 4.48
Emax (CfEcR-DEF mutant M219Y): 1%
pEC50 (CfEcR-DEF mutant T52G): < 4.48
Emax (CfEcR-DEF mutant T52G): 1%
pEC50 (CfEcR-DEF mutant T52M): < 4.48
Emax (CfEcR-DEF mutant T52M): 1%
pEC50 (CfEcR-DEF mutant T52Q): 4.70
Emax (CfEcR-DEF mutant T52Q): 8%
pEC50 (CfEcR-DEF mutant T52R): < 4.48
Emax (CfEcR-DEF mutant T52R): 0%
pEC50 (CfEcR-DEF mutant T52W): 6.74
Emax (CfEcR-DEF mutant T52W; NIH3T3, 40 h, read-out: Rel Max FI): 424%
pEC50 (CfEcR-DEF mutant W238L): < 4.48
Emax (CfEcR-DEF mutant W238L): 0%
pEC50 (CfEcR-DEF mutant W238M): < 4.48
Emax (CfEcR-DEF mutant W238M): 3%

CCCCC(N(NC(=O)c1ccc(CC)cc1)C(=O)c1cc(C)cc(C)c1)C(C)(C)C (centres unmarked) [RG-115840, 3,5-dimethyl-benzoic acid N-(1-tert-butyl-pentyl)-N′-(4-ethyl-benzoyl)-hydrazide]
pEC50 (CfEcR-DEF mutant F48K): 5.42
Emax (CfEcR-DEF mutant F48K): 18%
pEC50 (CfEcR-DEF mutant F48R): 5.45
Emax (CfEcR-DEF mutant F48R): 265%
pEC50 (CfEcR-DEF mutant I51M): 5.38
Emax (CfEcR-DEF mutant I51M): 27%
pEC50 (CfEcR-DEF mutant L132E): 5.78
Emax (CfEcR-DEF mutant L132E): 156%
pEC50 (CfEcR-DEF mutant L223K): 6.00
Emax (CfEcR-DEF mutant L223K): 93%
pEC50 (CfEcR-DEF mutant L223R): 5.70
Emax (CfEcR-DEF mutant L223R): 25%
pEC50 (CfEcR-DEF mutant L223Y): 6.24
Emax (CfEcR-DEF mutant L223Y): 142%
pEC50 (CfEcR-DEF mutant L234R): 4.70
Emax (CfEcR-DEF mutant L234R): 224%
pEC50 (CfEcR-DEF mutant L234W): < 4.48
Emax (CfEcR-DEF mutant L234W): 6%
pEC50 (CfEcR-DEF mutant M125G): 5.53
pEC50 (CfEcR-DEF mutant M125I): 5.52
Emax (CfEcR-DEF mutant M125I): 45%
pEC50 (CfEcR-DEF mutant M125N): 5.48
pEC50 (CfEcR-DEF mutant M125S): 5.85
pEC50 (CfEcR-DEF mutant M125V): 5.42
Emax (CfEcR-DEF mutant M125V): 47%
pEC50 (CfEcR-DEF mutant M219A): 5.54
Emax (CfEcR-DEF mutant M219A): 60%
pEC50 (CfEcR-DEF mutant M219K): < 4.48
Emax (CfEcR-DEF mutant M219K): 1%
pEC50 (CfEcR-DEF mutant M219W): 5.63
Emax (CfEcR-DEF mutant M219W): 39%
pEC50 (CfEcR-DEF mutant M219Y): 6.00
Emax (CfEcR-DEF mutant M219Y): 68%
pEC50 (CfEcR-DEF mutant T52G): 5.44
Emax (CfEcR-DEF mutant T52G): 23%
pEC50 (CfEcR-DEF mutant T52M): 5.30
Emax (CfEcR-DEF mutant T52M): 15%
pEC50 (CfEcR-DEF mutant T52Q): 5.70
Emax (CfEcR-DEF mutant T52Q): 34%
pEC50 (CfEcR-DEF mutant T52R): < 4.48
Emax (CfEcR-DEF mutant T52R): 2%
pEC50 (CfEcR-DEF mutant T52W): 5.39
pEC50 (CfEcR-DEF mutant W238L): 5.70
Emax (CfEcR-DEF mutant W238L): 41%
pEC50 (CfEcR-DEF mutant W238M): 5.70
Emax (CfEcR-DEF mutant W238M): 41%
